In one test the target is human Gal-3 (hGal-3) (Homo sapiens (Human), UniProt P17931). Put plainly: Competitive binding assay: biotinylated hGal-3 binding to microplate-adsorbed asialofetuin (ASF). The conditions noted are these: IC50 values from several measurements given as geomean. How it is done: (§1) The inhibitory activity of compounds is determined in competitive binding assays. This spectrophotometric assay measures the binding of biotinylated human Gal-3 (hGal-3) or human Gal-1 (hGal-1), respectively, to a microplate-adsorbed glycoprotein, asialofetuin (ASF) (Proc Natl Acad Sci USA. 2013 Mar. 26; 110(13):5052-7.). Alternatively, and preferably, a human Gal-1 version in which all six cysteines are substituted by serines may be used.
Sequence of human Gal-3 (hGal-3) (P17931 whole entry): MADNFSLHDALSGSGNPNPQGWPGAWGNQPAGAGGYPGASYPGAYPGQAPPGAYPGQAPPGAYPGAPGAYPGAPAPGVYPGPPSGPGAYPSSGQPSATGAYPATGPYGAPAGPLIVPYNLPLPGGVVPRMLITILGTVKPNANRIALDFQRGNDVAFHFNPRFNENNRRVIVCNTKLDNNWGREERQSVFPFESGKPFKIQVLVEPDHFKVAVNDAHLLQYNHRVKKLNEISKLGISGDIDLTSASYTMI
(§2) Briefly, compounds are serially diluted in DMSO (working dilutions). ASF-coated 384well plates are supplemented with 22.8 μL/well of biotinylated hGal-3 or hGal-1 in assay buffer (i.e. 300-1000 ng/mL biotinylated hGal-3 or hGal-1) to which 1.2 μL of compound working dilutions are added and mixed.
(§3) Plates are incubated for 3 hours at 4° C., then washed with cold assay buffer (3×50 uL), incubated for 1 hour with 25 μL/well of a streptavidin-peroxidase solution (diluted in assay buffer to 80 ng/mL) at 4° C., followed by further washing steps with assay buffer (3×50 uL). Finally, 25 μL/well of ABTS substrate is added.
(§4) The calculated IC50 values may fluctuate depending on the daily assay performance. Fluctuations of this kind are known to those skilled in the art. IC50 values from several measurements are given as geomean values.

The target in the next test is human Gal-1 (hGal-1) (Homo sapiens, UniProt P09382, C131S/C17S/C43S/C61S/C89S). As to the kind of experiment: Competitive binding assay: biotinylated hGal-1 binding to microplate-adsorbed asialofetuin (ASF). The conditions noted are these: IC50 values from several measurements given as geomean. The method, then: as §1, §2, §3, §4

The results in this text go back to patent US20240109930A1, “TRIAZOLYL-METHYL SUBSTITUTED ALPHA-D-GALACTOPYRANOSIDE DERIVATIVES” (Idorsia Pharmaceuticals Ltd, priority 2021, published 2024).

SMILES strings stand for the structures.

As to `CO[C@@H]1[C@@H](n2cc(-c3ccc(Cl)c(F)c3F)nn2)[C@@H](O)[C@@H](CO)O[C@@H]1Cc1cn([C@@H]2CC[C@@H]2F)nn1` (single isomer, unassigned) [Example 2.1.88.B, (2R,3R,4S,5R,6R)-4-(4-(4-chloro-2,3-difluorophenyl)-1H-1,2,3-triazol-1-yl)-6-((1-((1R*,2S*)-2-fluorocyclobutyl)-1H-1,2,3-triazol-4-yl)methyl)-2-(hydroxymethyl)-5-methoxytetrahydro-2H-pyran-3-ol], the IC50 was determined as 30 nM at human Gal-3 (hGal-3) and 920 nM at human Gal-1 (hGal-1).
On to `CO[C@@H]1[C@@H](n2cc(-c3ccc(Br)c(F)c3F)nn2)[C@@H](O)[C@@H](CO)O[C@@H]1Cc1cn([C@]2(C)C[C@H](O)C2)nn1` [Ex 4.1.19.], for which the IC50 at human Gal-3 (hGal-3) amounted to 50 nM; at human Gal-1 (hGal-1), 1820 nM.
The corresponding values for `COCC1(n2cc(C[C@H]3O[C@H](CO)[C@H](O)[C@H](n4cc(-c5ccc(Cl)c(F)c5F)nn4)[C@H]3OC)nn2)CC1` [Ex 2.1.7.] are 60 nM and 2950 nM.
The like results for `CO[C@@H]1[C@@H](n2cc(-c3ccc(Cl)c(F)c3F)nn2)[C@@H](O)[C@@H](CO)O[C@@H]1Cn1cc(C2(C)CCC2)nn1` [Ex 2.2.13.] were, in that order, 30 nM and 1510 nM.
As for `CO[C@@H]1[C@@H](n2cc(-c3ccc(F)c(F)c3F)nn2)[C@@H](O)[C@@H](CO)O[C@@H]1Cn1cc(C2(CO)CC2)nn1` [Ex 3.2.4.], the half-maximal inhibitory concentration (IC50) worked out at 100 nM at human Gal-3 (hGal-3) and 650 nM on human Gal-1 (hGal-1).
Take `CO[C@@H]1[C@@H](n2cc(-c3ccc(C)c(F)c3F)nn2)[C@@H](O)[C@@H](CO)O[C@@H]1Cn1cc(C2(C)COC2)nn1` [Ex 1.2.6.]: the IC50 on human Gal-3 (hGal-3) stood at 40 nM; on human Gal-1 (hGal-1), 2970 nM.
The like results for `COCC1(n2cc(C[C@H]3O[C@H](CO)[C@H](O)[C@H](n4cc(-c5ccc(C)c(F)c5F)nn4)[C@H]3OC)nn2)CC1` [Ex 1.1.7.] were, in that order, 60 nM and 5100 nM.
On to `CO[C@@H]1[C@@H](n2cc(-c3ccc(C#N)c(F)c3F)nn2)[C@@H](O)[C@@H](CO)O[C@@H]1Cc1cn(C2(C(F)(F)F)COC2)nn1` [Ex 5.1.58.], for which the IC50 on human Gal-3 (hGal-3) was determined as 70 nM; at human Gal-1 (hGal-1), 1910 nM.
The like results for `CO[C@@H]1[C@@H](n2cc(-c3ccc(F)c(F)c3F)nn2)[C@@H](O)[C@@H](CO)O[C@@H]1Cc1cn(C2(C(F)F)CCC2)nn1` [Ex 3.1.43., (2R,3R,4S,5R,6R)-6-((1-(1-(difluoromethyl)cyclobutyl)-1H-1,2,3-triazol-4-yl)methyl)-2-(hydroxymethyl)-5-methoxy-4-(4-(2,3,4-trifluorophenyl)-1H-1,2,3-triazol-1-yl)tetrahydro-2H-pyran-3-ol] were, in that order, 30 nM and 210 nM.
For the compound `CO[C@@H]1[C@@H](n2cc(-c3ccc(Cl)c(F)c3F)nn2)[C@@H](O)[C@@H](CO)O[C@@H]1Cc1cn([C@@H]2COC[C@@H]2F)nn1` (single isomer, unassigned) [Example 2.1.74.A, (2R,3R,4S,5R,6R)-4-(4-(4-chloro-2,3-difluorophenyl)-1H-1,2,3-triazol-1-yl)-6-((1-((3R*,4R*)-4-fluorotetrahydrofuran-3-yl)-1H-1,2,3-triazol-4-yl)methyl)-2-(hydroxymethyl)-5-methoxytetrahydro-2H-pyran-3-ol], the figures for the half-maximal inhibitory concentration (IC50) at human Gal-3 (hGal-3) and on human Gal-1 (hGal-1) were 10 nM and 450 nM, respectively.
Regarding `CO[C@@H]1[C@@H](n2cc(-c3ccc(C)c(F)c3F)nn2)[C@@H](O)[C@@H](CO)O[C@@H]1Cc1cn(C2CC2C(C)C)nn1` (stereo partly shown) [Ex 1.1.17.], the values for the IC50 on human Gal-3 (hGal-3) and on human Gal-1 (hGal-1) were 110 nM and 5000 nM, respectively.
The like results for `CO[C@@H]1[C@@H](n2cc(-c3ccc(Br)c(F)c3F)nn2)[C@@H](O)[C@@H](CO)O[C@@H]1Cc1cn(C23CC(OC)(C2)C3)nn1` [Ex 4.1.29.] were, in that order, 50 nM and 3630 nM.
As to `CO[C@@H]1[C@@H](n2cc(-c3ccc(Cl)c(F)c3F)nn2)[C@@H](O)[C@@H](CO)O[C@@H]1Cn1cc(C2(CO)CC2)nn1` [Ex 2.2.4.], the IC50 is 50 nM on human Gal-3 (hGal-3) and 1480 nM at human Gal-1 (hGal-1).
`CO[C@@H]1[C@@H](n2cc(-c3ccc(F)c(F)c3F)nn2)[C@@H](O)[C@@H](CO)O[C@@H]1Cn1cc(C2(O)CCCC2)nn1` [Ex 3.2.33.]: the IC50 on human Gal-3 (hGal-3) was determined as 90 nM; at human Gal-1 (hGal-1) it was 1250 nM.
`CO[C@@H]1[C@@H](n2cc(-c3ccc(F)c(F)c3F)nn2)[C@@H](O)[C@@H](CO)O[C@@H]1Cc1cn(C23CCOC(C)(C2)C3)nn1` [Ex 3.1.62.]: the IC50 on human Gal-3 (hGal-3) amounted to 60 nM; on human Gal-1 (hGal-1), 810 nM.
The corresponding values for `CO[C@@H]1[C@@H](n2cc(-c3ccc(F)c(F)c3F)nn2)[C@@H](O)[C@@H](CO)O[C@@H]1Cc1cn(C2(CO)CCC2)nn1` [Ex 3.1.11.] are 40 nM and 890 nM.
The corresponding values for `CO[C@@H]1[C@@H](n2cc(-c3ccc(C)c(F)c3F)nn2)[C@@H](O)[C@@H](CO)O[C@@H]1Cc1cn([C@@H]2CCC[C@H]2O)nn1` [Ex 1.1.2.] are 40 nM and 6460 nM.
The corresponding values for `CO[C@@H]1[C@@H](n2cc(-c3ccc(Cl)c(F)c3F)nn2)[C@@H](O)[C@@H](CO)O[C@@H]1Cc1cn([C@@]2(C(F)(F)F)C[C@H]3C[C@H]3C2)nn1` [Ex 2.1.69.] are 40 nM and 470 nM.
For `CO[C@@H]1[C@@H](n2cc(-c3ccc(F)c(F)c3F)nn2)[C@@H](O)[C@@H](CO)O[C@@H]1Cc1cn(C2(CO)CCCC2)nn1` [Ex 3.1.5.], the results for the 50% inhibitory concentration (IC50) at human Gal-3 (hGal-3) and at human Gal-1 (hGal-1) were 60 nM and 600 nM, respectively.
As for `CO[C@@H]1[C@@H](n2cc(-c3ccc(Cl)c(F)c3F)nn2)[C@@H](O)[C@@H](CO)O[C@@H]1Cc1cn([C@@H]2CCC[C@H]2F)nn1` (relative stereo) [Example 2.1.79.CD, (2R,3R,4S,5R,6R)-4-(4-(4-chloro-2,3-difluorophenyl)-1H-1,2,3-triazol-1-yl)-6-((1-((1R*,2R*)-2-fluorocyclopentyl)-1H-1,2,3-triazol-4-yl)methyl)-2-(hydroxymethyl)-5-methoxytetrahydro-2H-pyran-3-ol], the figures for the IC50 on human Gal-3 (hGal-3) and at human Gal-1 (hGal-1) were 60 nM and 3480 nM, respectively.
The corresponding values for `CO[C@@H]1[C@@H](n2cc(-c3ccc(Cl)c(F)c3F)nn2)[C@@H](O)[C@@H](CO)O[C@@H]1Cc1cn(C2CCOCC2(F)F)nn1` (single isomer, unassigned) [Example 2.1.89.B] are 20 nM and 870 nM.
The corresponding values for `CO[C@@H]1[C@@H](n2cc(-c3ccc(F)c(F)c3F)nn2)[C@@H](O)[C@@H](CO)O[C@@H]1Cn1cc(C2(C)COC2)nn1` [Ex 3.2.6.] are 70 nM and 580 nM.
Take `CO[C@@H]1[C@@H](n2cc(-c3ccc(C)c(F)c3F)nn2)[C@@H](O)[C@@H](CO)O[C@@H]1Cc1cn(C2[C@H]3CCC[C@@H]23)nn1` (stereo partly shown) [Ex 1.1.20.]: the IC50 at human Gal-3 (hGal-3) worked out at 50 nM; on human Gal-1 (hGal-1), 3440 nM.
The like results for `CO[C@@H]1[C@@H](n2cc(-c3ccc(Cl)c(F)c3F)nn2)[C@@H](O)[C@@H](CO)O[C@@H]1Cc1cn(C2CC(C(F)(F)F)C2)nn1` (stereo partly shown) [Ex 2.1.41.] were, in that order, 130 nM and 9170 nM.
For the compound `CO[C@@H]1[C@@H](n2cc(-c3ccc(Cl)c(F)c3F)nn2)[C@@H](O)[C@@H](CO)O[C@@H]1Cc1cn(C2CC(F)C2)nn1` (single isomer, unassigned) [Example 2.1.60.B], the IC50 amounted to 40 nM on human Gal-3 (hGal-3) and 1190 nM at human Gal-1 (hGal-1).
The corresponding values for `CO[C@@H]1[C@@H](n2cc(-c3ccc(Cl)c(F)c3F)nn2)[C@@H](O)[C@@H](CO)O[C@@H]1Cc1cn(C23COC(C2)C3)nn1` [Ex 2.1.44.] are 30 nM and 2100 nM.
The corresponding values for `CO[C@@H]1[C@@H](n2cc(-c3ccc(F)c(F)c3F)nn2)[C@@H](O)[C@@H](CO)O[C@@H]1Cn1cc(C23CCC(NC(=O)OC(C)(C)C)(CC2)CC3)nn1` [Ex 3.2.37.] are 40 nM and 1720 nM.
On to `CO[C@@H]1[C@@H](n2cc(-c3ccc(Cl)c(F)c3F)nn2)[C@@H](O)[C@@H](CO)O[C@@H]1Cc1cn(C2CCOCC2(F)F)nn1` (single isomer, unassigned) [Example 2.1.89.A], for which the figures for the half-maximal inhibitory concentration (IC50) on human Gal-3 (hGal-3) and at human Gal-1 (hGal-1) were 10 nM and 100 nM, respectively.
With `CO[C@@H]1[C@@H](n2cc(-c3ccc(Cl)c(F)c3F)nn2)[C@@H](O)[C@@H](CO)O[C@@H]1Cc1cn(C(C)(C)C(F)(F)F)nn1` [Ex 2.1.56.], the half-maximal inhibitory concentration (IC50) on human Gal-3 (hGal-3) worked out at 50 nM; at human Gal-1 (hGal-1), 820 nM.
The like results for `CO[C@@H]1[C@@H](n2cc(-c3ccc(Cl)c(F)c3F)nn2)[C@@H](O)[C@@H](CO)O[C@@H]1Cn1cc(C2(O)CCCC2)nn1` [Ex 2.2.33.] were, in that order, 80 nM and 4780 nM.
Regarding `CO[C@@H]1[C@@H](n2cc(-c3ccc(Br)c(F)c3F)nn2)[C@@H](O)[C@@H](CO)O[C@@H]1Cc1cn(C2(C)CC(F)(F)C2)nn1` [Ex 4.1.15.], the IC50 at human Gal-3 (hGal-3) is 50 nM; at human Gal-1 (hGal-1) it was 2410 nM.
The corresponding values for `CO[C@@H]1[C@@H](n2cc(-c3ccc(Br)c(F)c3F)nn2)[C@@H](O)[C@@H](CO)O[C@@H]1Cc1cn(C2(CO)CC2)nn1` [Ex 4.1.4.] are 40 nM and 2930 nM.

Broadly, the IC50 is the concentration that gives 50% inhibition.
